Measurements from US20160039802A1, “3-PYRIMIDIN-4-YL-OXAZOLIDIN-2-ONES AS INHIBITORS OF MUTANT IDH” (NOVARTIS AG, priority 2013, published 2016).

Columns and labels:
IDH1 (R132H) mutant = biological target: T1, IDH1 (R132H) mutant (Homo sapiens, UniProt O75874, R132H); experiment: Fluorescence biochemical assay (NADPH oxidation); conditions: mIDH R132H 10 nM, 10 μM NADPH, 100 μM α-KG; range where run multiple times
T1 construct: His6 with PreScission site (N, cleaved yes); made in house; host or cells: E. coli Rosetta 2(DE3)
T1 sequence (O75874 whole entry R132H): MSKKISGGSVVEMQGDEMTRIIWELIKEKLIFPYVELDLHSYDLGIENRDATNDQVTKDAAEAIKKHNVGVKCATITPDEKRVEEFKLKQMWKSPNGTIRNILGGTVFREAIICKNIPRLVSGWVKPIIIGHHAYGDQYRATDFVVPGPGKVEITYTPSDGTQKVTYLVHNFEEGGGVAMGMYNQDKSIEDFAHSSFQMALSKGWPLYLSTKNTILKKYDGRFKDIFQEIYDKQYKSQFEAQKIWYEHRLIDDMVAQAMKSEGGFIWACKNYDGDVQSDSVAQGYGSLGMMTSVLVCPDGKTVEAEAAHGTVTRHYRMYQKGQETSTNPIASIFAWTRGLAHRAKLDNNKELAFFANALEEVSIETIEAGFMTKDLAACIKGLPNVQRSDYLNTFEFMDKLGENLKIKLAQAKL
Method: The IDH1 (R132H) mutant catalyzes the reduced form of NADP+ (NADPH) and α-ketoglutarate (α-KG) to form nicotinamide adenine dinucleotide phosphate (NADP+) and R(−)-2-hydroxyglutarate (2HG). […] Reactions were monitored using the Perkin-Elmer Envision, Model 2101. […] The final reaction mixture contained 2.5% DMSO and test compounds with concentrations ranging 0.0000008-25 μM. The IDH1 (R132H) enzyme was used at a final concentration of 10 nM. Curve fitting for dose response […] determinations was done in the Helios module of the software package DAVID. The 4-parameter logistic model was used: y=min+((max−min)/1+(x/IC50)^shape)

Mutant IDH1 R132H = biological target: T2, Mutant IDH1 R132H (Homo sapiens, UniProt O75874, R132H); experiment: Mutant IDH1 biochemical assay: LC-MS detection of 2-HG; conditions: mIDH R132H […], 5 uM NADPH, 100 uM alpha-KG, 45 minutes incubation; range where run multiple times; note: mIDH R132H 0.25 nM, 5 µM NADPH
T2 construct: His6 with PreScission site (N, cleaved yes); made in house; host or cells: E. coli Rosetta 2(DE3)
T2 sequence (O75874 whole entry R132H): as above
From the text: Mutant IDH1 biochemical Sssay: LC-MS Detection of 2-HG.

| SMILES | IC50 (IDH1 (R132H) mutant) | IC50 (Mutant IDH1 R132H) |
| --- | --- | --- |
| C[C@H](Nc1nc(Cl)cc(N2C(=O)OC[C@@H]2C2CC2)n1)c1ccc(C(C)(C)F)cc1F [Example 20, (S)-3-(6-chloro-2-(((S)-1-(2-fluoro-4-(2-fluoropropan-2-yl)phenyl)ethyl)amino)pyrimidin-4-yl)-4-cyclopropyloxazolidin-2-one] | 218 nM | 83.9 nM |
| C[C@H](Nc1nccc(N2C(=O)OC[C@]2(C)C2CC2)n1)c1ccc(CN2CCC(N(C)C)CC2)c(F)c1 [Example 30, (S)-4-cyclopropyl-3-(2-(((S)-1-(4-((4-(dimethylamino)piperidin-1-yl)methyl)-3-fluorophenyl)ethyl)amino)pyrimidin-4-yl)-4-methyloxazolidin-2-one] | 122 to 172 nM | 211 to 271 nM |
| C[C@H](Nc1nccc(N2C(=O)OC[C@]2(C)C2CC2)n1)c1ccc(CN2CCC(N(C)C)CC2)cc1F [Example 33, (S)-4-cyclopropyl-3-(2-(((S)-1-(4-((4-(dimethylamino)piperidin-1-yl)methyl)-2-fluorophenyl)ethyl)amino)pyrimidin-4-yl)-4-methyloxazolidin-2-one] | 109 to 115 nM | 175 nM |
| CNC1CCN(Cc2ccc([C@H](C)Nc3nccc(N4C(=O)OC[C@]4(C)C4CC4)n3)cc2F)CC1 [Example 40, (S)-4-cyclopropyl-3-(2-(((S)-1-(3-fluoro-4-((4-(methylamino)piperidin-1-yl)methyl)phenyl)ethyl)amino)pyrimidin-4-yl)-4-methyloxazolidin-2-one] | 105 to 111 nM | 117 nM |
| C[C@H](Nc1nccc(N2C(=O)OC[C@]2(C)C2CC2)n1)c1ccc(CN2CCC(N)CC2)c(F)c1 [Example 41, (S)-3-(2-(((S)-1-(4-((4-aminopiperidin-1-yl)methyl)-3-fluorophenyl)ethyl)amino)pyrimidin-4-yl)-4-cyclopropyl-4-methyloxazolidin-2-one] | 194 to 473 nM | 376 nM |

Compounds with a lower IC50 (IDH1 (R132H) mutant), results first:

| IC50 (IDH1 (R132H) mutant) | IC50 (Mutant IDH1 R132H) | SMILES |
| --- | --- | --- |
| 7.27 nM | 20 nM | C[C@H](Nc1nc(Cl)cc(N2C(=O)OC[C@@H]2C2CC2)n1)c1cn(-c2ccc(F)cc2)cn1 [Example 27, (S)-3-(6-chloro-2-(((S)-1-(1-(4-fluorophenyl)-1H-imidazol-4-yl)ethyl)amino)pyrimidin-4-yl)-4-cyclopropyloxazolidin-2-one] |
| 41.8 to 53.1 nM | 192 nM | C[C@H](Nc1nccc(N2C(=O)OC[C@]2(C)C2CC2)n1)c1ccc(CN2CCC(C)(O)CC2)cc1F [Example 34, (S)-4-cyclopropyl-3-(2-(((S)-1-(2-fluoro-4-((4-hydroxy-4-methylpiperidin-1-yl)methyl)phenyl)ethyl)amino)pyrimidin-4-yl)-4-methyloxazolidin-2-one] |
| 15.9 nM | 10.9 nM | C[C@H](Nc1nccc(N2C(=O)OC[C@]2(C)C2CC2)n1)c1ccc(CN2CCC(O)(C(F)(F)F)CC2)cc1F [Example 35, (S)-4-cyclopropyl-3-(2-(((S)-1-(2-fluoro-4-((4-hydroxy-4-(trifluoromethyl)piperidin-1-yl)methyl)phenyl)ethyl)amino)pyrimidin-4-yl)-4-methyloxazolidin-2-one] |
